Experimental data as given in patent US20180258123A1, “Suppressors of Premature Termination Codons as Therapeutics and Methods for Their Use” (The University of British Columbia, priority 2015, published 2018).

What was measured:
[1] = cited from earlier work
[2] = system: HDQ-P1 cells, full-length p53; assay: p53 read-through assay with steroids (western blotting, FIG. 4); format: cell-based, human
Experimental: HDQ-P1 cells were seeded at 100,000 cells per well of TC-treated 6-well plates. The next day, the medium was replaced with fresh medium containing compounds to be tested and were incubated for 48 to 96 h. The medium was removed by aspiration, cell monolayers were rinsed with 1 ml ice-cold PBS. Cells were lysed in 80 μl lysis buffer (20 mM Tris-HCl pH 7.5, 150 mM NaCl, 1 mM EDTA, 1 mM EGTA, 1% (v/v) Triton […], 2.5 mM sodium pyrophosphate, 1 mM beta-glycerophosphate supplemented with fresh 1 mM Na3VO4, 1 mM dithiothreitol and 1× complete protease inhibitor cocktail (Roche Molecular BiochemicalsTM)). Lysates were pre-cleared by centrifugation at 18,000 g for 15 min at 4° C. Supernatants were collected, protein was quantitated using the Bradford assay and lysates were adjusted to 1 mg/ml protein. Capillary electrophoresis and western analysis conditions were carried out with manufacturer's reagents according to the user manual (ProteinSimple WESTM). Briefly, 5.6 μl of cell lysate was mixed with 1.4 μl fluorescent master mix and heated at 95° C. for 5 min. The samples, blocking reagent, wash buffer, DO-1 p53 antibody (0.5 μg/ml) and vinculin antibody (1:2000, R&D clone 728526), secondary antibody and chemiluminescent substrate were dispensed into the microplate provided by the manufacturer. […] The data was analyzed with inbuilt CompassTM software (ProteinsimpleTM). […]

[3] = Toxicity observed in the in vivo read-through study; conditions: 400 mg/kg intraperitoneal; mice sacrificed shortly after administration
Experimental: Methods for FIG. 8: Two million NCI-H1299 human non-small cell lung carcinoma cells stably expressing a TP53 expression construct bearing the R213X (TGA) nonsense mutation were implanted subcutaneously on the lower back of immunocompromised NRG (NOD-Rag1^null IL2rg^null) mice. […] 48 hours after the last injection, the mice were sacrificed and the amounts of truncated p53 and full-length p53 were determined by western analysis. […] Vinculin was used as a protein loading control.

CN[C@@H]1[C@@H](O)[C@@H](O[C@@H]2[C@@H](O)[C@H](O[C@H]3O[C@H]([C@@H](C)N)CC[C@H]3N)[C@@H](N)C[C@H]2N)OC[C@]1(C)O [Gentamicin C2]
nephrotoxicity of the major gentamicins ([1]; Kohlhepp S. J. et al. 1984): nephrotoxicity was caused mainly by C2

CC(=O)O[C@]1(C(C)=O)CC[C@H]2[C@@H]3C[C@H](C)C4=CC(=O)CC[C@]4(C)[C@H]3CC[C@@]21C [Medroxy pro, Medroxyprogesterone acetate]
read-through activity of steroid alone [2]: no read-through activity

Gentamicin [reference compound]
toxicity [3]: induced acute toxicity
nephrotoxicity and ototoxicity ([1]; in vivo): nephrotoxic and ototoxic
